The text below walks through data of patent publication US9962383B2, “Compounds, compositions and methods of agelastatin alkaloids” (Massachusetts Institute of Technology, priority 2013, dated 2018).

The subject of one assay is HL-60. Description: 48-hour IC50 by MTS, HL-60 acute promyelocytic leukemia cells. The assay is classed as cell-based, human. The procedure:
(§1) Cells were grown in media supplemented with fetal bovine serum (FBS) and antibiotics (100 μg/mL penicillin and 100 U/mL streptomycin). […] Cells were incubated at 37° C. in a 5% CO2, 95% humidity atmosphere.
(§2) In a 96-well plate, compounds were pre-added as DMSO stocks (1% final) in triplicate to achieve final concentrations of 1 nM to 10 μM on a half log scale. DMSO and cell-free wells served as the live and dead control, respectively. […] IC50 values were determined from three or more independent experiments using TableCurve (San Jose, Calif.).

The subject of assay [1] is human cell lines (U-937, HeLa, A549, BT549, IMR90). Description: Ability to induce cell death in the panel of five human cell lines (Table 3). The class given is cell-based. The following applies: 48-hour exposure, 1 nM to 10 μM, cell lines of Table 3. The procedure:
Six (−)-agelastatins along with eight closely related derivatives prepared in the above examples were tested (Table 3). The six (−)-agelastatin alkaloids (1-6, respectively), (−)-O-methyl-di-epi-agelastatin A (50), (−)-dehydroagelastatin A (51), (−)-di-epi-agelastatin C (52), (+)-O-methyl-pre-agelastatin A and D (39 and 53, respectively), along with bicyclic pyrroles (+)-44, (+)-45, and triazone (+)-48 were tested for their ability to induce cell death in four human cancer cell lines (U-937, lymphoma; HeLa, cervical carcinoma; A549, non-small cell lung carcinoma; and BT549, breast carcinoma) and one immortalized normal human cell line (IMR90, lung fibroblasts) after a 48-hour exposure. […] Furthermore, enhanced activities in U-937 (20×) cell relative to the other cell lines (Table 3) were observed.
(§3) Adherent cells (HeLa, A549, BT549, and IMR90) were added into 96-well plates (5,000 cells/well for HeLa cell line; 2,000 cells/well for A549, BT549, and IMR90 cell lines) in 100 μL media and were allowed to adhere for 2-3 hours. Compounds were solubilized in DMSO as 100× stocks, added directly to the cells (100 μL final volume), and tested over a range of concentrations (1 nM to 10 μM) in triplicate (1% DMSO final) on a half-log scale. DMSO and cell-free wells served as the live and dead control, respectively. After 48 h of continuous exposure, the plates were evaluated using the SRB colorimetric assay as described previously (V. Vichai, K. Kirtikara, Nature Prot., 2006, 1, 1112). Briefly, media was removed from the plate, and cells were fixed by the addition of 100 μL cold 10% trichloroacetic acid in water. After incubating at 4° C. for 1 h, the plates were washed in water and allowed to dry. Sulforhordamine B was added as a 0.057% solution in 1% acetic acid (100 μL), and the plates were incubated at room temperature for 30 min, washed in 1% acetic acid, and allowed to dry. The dye was solubilized by adding 10 mM Tris base solution (pH 10.5, 200 μL) and incubating at room temperature for 30 min Plates were read at λ=510 nm. IC50 values were determined from three or more independent experiments using TableCurve (San Jose, Calif.).
In a 96-well plate, compounds were pre-added as DMSO stocks (1% final) in triplicate to achieve final concentrations of 1 nM to 10 μM on a half log scale. DMSO and cell-free wells served as the live and dead control, respectively. Suspension cells (U-937, CEM, CA46, Daudi, HL-60, and Jurkat; 10,000 cells/well) cells were distributed in 100 μL media to the compound-containing plate. After 48 h, cell viability was assessed by adding 20 μL of a PMS/MTS solution (A. H. Cory, T. C. Owen, J. A. Barltrop, J. G. Cory, Cancer Commun., 1991, 3, 207) to each well, allowing the dye to develop at 37° C. until the live control had processed MTS, and reading the absorbance at λ=490 nm. IC50 values were determined from three or more independent experiments using TableCurve (San Jose, Calif.).

The subject of another assay is synchronized U-937 cells. Description: Cell cycle arrest in thymidine-synchronized U-937 cells. The assay is classed as cell-based, human. The following applies: 16 hours, PI, flow cytometry. For orientation: A flow cytometer gives signals particle by particle.
The test system of another assay is CA46. Description: 48-hour IC50 by MTS, CA46 Burkitt's lymphoma cells. The assay is classed as cell-based, human. The method, then:
as §1, §2

The test system of another assay is Daudi. Put plainly: 48-hour IC50 by MTS, Daudi Burkitt's lymphoma cells. The class given is cell-based, human. The procedure:
as §1, §2

For the next assay, the system named is HeLa. Put plainly: 48-hour IC50 by SRB, HeLa cervical carcinoma cells. The class given is cell-based, human. The procedure:
as §1
as §3, with “After 48 h of continuous exposure, the plates were evaluated using the SRB colorimetric assay as described previously (V. Vichai, K. Kirtikara, Nature Prot., 2006, 1, 1112).” left out, “The dye was solubilized by adding 10 mM Tris base solution (pH 10.5, 200 μL) and incubating at room temperature for 30 min Plates were read at λ=510 nm.” left out

Another assay relates to U-937. Put plainly: 48-hour IC50 by MTS, U-937 lymphoma cells. The assay is classed as cell-based, human. The method, then:
as §1, §2

The subject of a further assay is BT549. Put plainly: 48-hour IC50 by SRB, BT549 breast carcinoma cells. The class given is cell-based, human. The method, then: as §1
as §3, with “After 48 h of continuous exposure, the plates were evaluated using the SRB colorimetric assay as described previously (V. Vichai, K. Kirtikara, Nature Prot., 2006, 1, 1112).” left out, “The dye was solubilized by adding 10 mM Tris base solution (pH 10.5, 200 μL) and incubating at room temperature for 30 min Plates were read at λ=510 nm.” left out

In the next assay the test system is A549. Description: 48-hour IC50 by SRB, A549 non-small cell lung carcinoma cells. The assay is classed as cell-based, human. The procedure: as §1
as §3, with “After 48 h of continuous exposure, the plates were evaluated using the SRB colorimetric assay as described previously (V. Vichai, K. Kirtikara, Nature Prot., 2006, 1, 1112).” left out, “The dye was solubilized by adding 10 mM Tris base solution (pH 10.5, 200 μL) and incubating at room temperature for 30 min Plates were read at λ=510 nm.” left out

The next assay relates to U-937 cells. Put plainly: Apoptosis in U-937 cells with Annexin V-FITC and propidium iodide. The assay is classed as cell-based, human. To be noted: 21 hours, flow cytometry. The procedure: FIG. 3. […] Analysis of phosphatidylserine exposure and propidium iodide inclusion at 21 hours in U-937 cells. Compounds were tested at indicated concentrations and STS was used as a positive control for apoptosis. Samples were analyzed by flow cytometry for the relative timing of phosphatidylserine exposure relative to PI inclusion. FITC=fluorescein isothiocyanate; PI=propidium iodide; STS=staurosporine.
DMSO stocks of compounds were added to a 24-well plate in singlicate (0.2% DMSO final). […] Following treatment, the cell suspensions were transferred to flow cytometry tubes and pelleted (500 g, 3 min). The media was removed by aspiration, and cells were resuspended in 200 μL AnnV binding buffer (10 mM HEPES, pH 7.4, 140 mM NaCl, 2.5 mM CaCl2) with 5 μg/mL PI and 1:90 dilution of AnnV. Samples were analyzed using flow cytometry.

Another assay concerns Jurkat. Put plainly: 48-hour IC50 by MTS, Jurkat acute T-cell leukemia cells. The assay is classed as cell-based, human. The procedure:
as §1, §2

The subject of the next assay is IMR90. Description: 48-hour IC50 by SRB, IMR90  lung fibroblasts. The assay is classed as cell-based, human. To be noted: IMR90 immortalized lung fibroblasts. The procedure: as §1
as §3, with “After 48 h of continuous exposure, the plates were evaluated using the SRB colorimetric assay as described previously (V. Vichai, K. Kirtikara, Nature Prot., 2006, 1, 1112).” left out, “The dye was solubilized by adding 10 mM Tris base solution (pH 10.5, 200 μL) and incubating at room temperature for 30 min Plates were read at λ=510 nm.” left out

The next assay deals with CEM. Put plainly: 48-hour IC50 by MTS, CEM acute lymphoblastic leukemia cells. The assay is classed as cell-based, human. The method, then:
as §1, §2

Method for synchronized U-937 cells: Samples were fixed, treated with an RNAse, stained with PI, and analyzed by flow cytometry. Taxol, a microtubule stabilizer, was used as a positive control. Error bars represent standard deviation of the mean, n=3. * p<0.01. PI=propidium iodide.
U-937 cells were split to 50% confluency (250,000 cells/mL) and treated with 2 mM thymidine for 10 hours. The cells were then pelleted (500 g, 3 minutes) and washed with PBS before being resuspended in thymidine-free media and allowed to recover for 13 hours. The cells were then re-blocked with 2 mM thymidine for 10 hours, and then washed with PBS as before and resuspended in media (250,000 cells/mL).
DMSO stocks of compounds were added to a 24-well plate in triplicate (0.2% DMSO final), after which 1 mL of the prepared cell suspension was added. Following a 16 h incubation, the cell suspensions were transferred to 2 mL tubes and pelleted (600 g, 3 min). The media was removed by aspiration, and the cells were fixed with 0.5 mL of ice cold 70% ethanol with vortexing. The samples were fully fixed at −20° C. for 3 hours. The samples were then pelleted (1000 g, 5 min) and the supernatant was removed via aspiration. […] Prior to reading, the samples were taken up in 150 μL of 50 μg/mL propidium iodide in PBS and transferred to flow cytometry tubes. Samples were analyzed based on whole, single cells.

As to `CN1C(=O)N[C@H]2[C@@H]3NC(=O)c4ccc(Br)n4[C@@H]3C[C@]21O` [(−)-1, (−)-agelastatin A], the IC50 in the assay with HL-60 amounted to 138 ± 66 nM; in the assay with CA46 it was 187 ± 71 nM; in the assay with Daudi it was 20 ± 3 nM; with HeLa, 708 ± 90 nM; in the assay on U-937 it was 67 ± 3 nM; with BT549, 278 ± 76 nM. The half-maximal inhibitory concentration (IC50) came to 1050 ± 140 nM in the assay on A549, 74 ± 7 nM with Jurkat, 1110 ± 350 nM in the assay on IMR90 and 20 ± 2 nM in the assay on CEM. The “activity (ability to induce cell death) in words” value in assay [1] is on record as “highest potency in all cell lines tested”. Besides, the “G2/M cell cycle arrest” value in the assay on synchronized U-937 cells is “dose-dependent G2/M cell cycle arrest”. For the same compound, in the assay on U-937 cells, the “apoptosis (phosphatidylserine exposure and propidium iodide inclusion)” value is “induced dose-dependent apoptosis”.

For orientation: IC50 means the point on the concentration scale where inhibition reaches its midpoint. Higher therefore signals weaker potency.
